Biological target: T1, Adrenergic receptor alpha-1 (Rattus norvegicus, UniProt P15823+P23944+P43140)
T1 sequence (P15823 whole entry): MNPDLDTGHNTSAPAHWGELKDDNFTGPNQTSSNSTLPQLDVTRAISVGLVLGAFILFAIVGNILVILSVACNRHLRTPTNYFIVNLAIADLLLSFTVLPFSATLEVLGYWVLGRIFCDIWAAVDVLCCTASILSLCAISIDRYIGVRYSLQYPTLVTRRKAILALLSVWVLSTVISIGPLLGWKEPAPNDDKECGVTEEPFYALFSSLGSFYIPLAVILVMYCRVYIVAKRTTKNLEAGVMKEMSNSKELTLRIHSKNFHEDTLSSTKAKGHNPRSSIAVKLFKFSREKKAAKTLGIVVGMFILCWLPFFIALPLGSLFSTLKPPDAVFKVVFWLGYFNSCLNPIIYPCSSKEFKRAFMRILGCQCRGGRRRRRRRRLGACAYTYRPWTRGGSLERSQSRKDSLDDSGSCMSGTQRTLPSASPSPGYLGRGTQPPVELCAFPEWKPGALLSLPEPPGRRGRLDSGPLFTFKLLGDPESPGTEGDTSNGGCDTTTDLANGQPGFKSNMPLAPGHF
T1 sequence (P23944 whole entry): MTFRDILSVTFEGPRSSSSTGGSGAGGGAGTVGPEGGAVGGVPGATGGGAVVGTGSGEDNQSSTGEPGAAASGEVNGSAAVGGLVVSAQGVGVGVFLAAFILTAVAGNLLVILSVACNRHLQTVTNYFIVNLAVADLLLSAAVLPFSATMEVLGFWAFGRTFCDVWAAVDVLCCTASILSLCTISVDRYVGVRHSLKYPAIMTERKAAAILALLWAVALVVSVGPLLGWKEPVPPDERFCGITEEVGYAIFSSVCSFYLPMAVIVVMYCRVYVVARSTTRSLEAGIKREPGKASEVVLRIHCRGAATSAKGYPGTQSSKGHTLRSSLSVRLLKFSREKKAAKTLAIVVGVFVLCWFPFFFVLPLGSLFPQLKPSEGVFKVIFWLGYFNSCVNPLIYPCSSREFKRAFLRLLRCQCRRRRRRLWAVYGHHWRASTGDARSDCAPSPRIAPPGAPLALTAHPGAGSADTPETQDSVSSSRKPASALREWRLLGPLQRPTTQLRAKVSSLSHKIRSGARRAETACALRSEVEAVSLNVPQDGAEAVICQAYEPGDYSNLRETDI
T1 sequence (P43140 whole entry): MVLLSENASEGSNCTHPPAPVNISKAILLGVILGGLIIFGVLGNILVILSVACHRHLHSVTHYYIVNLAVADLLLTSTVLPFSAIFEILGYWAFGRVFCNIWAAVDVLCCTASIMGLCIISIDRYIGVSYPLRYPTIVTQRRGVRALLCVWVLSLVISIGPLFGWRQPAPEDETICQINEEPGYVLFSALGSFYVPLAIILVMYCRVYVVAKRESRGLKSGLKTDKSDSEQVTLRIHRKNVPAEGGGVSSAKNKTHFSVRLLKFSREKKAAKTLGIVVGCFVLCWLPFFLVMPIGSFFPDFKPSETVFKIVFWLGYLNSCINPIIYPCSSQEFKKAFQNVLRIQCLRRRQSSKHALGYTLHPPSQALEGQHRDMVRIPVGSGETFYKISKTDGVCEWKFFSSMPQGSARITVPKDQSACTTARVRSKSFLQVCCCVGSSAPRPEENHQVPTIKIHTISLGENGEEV
Assay: Antagonist activity at alpha1 adrenoceptor in Sprague-Dawley rat aorta assessed as inhibition of norepinephrine-induced contraction treated 30 mins before norepinephrine challenge

| pA2 | SMILES |
| --- | --- |
| 5.46 | Nc1ccccc1C1c2ccccc2CCN1CCOc1ccccc1 (stereo not drawn) |
| 6.72 | COc1ccc2c(c1)C(c1ccccc1NCCOc1ccccc1)N(CCOc1ccccc1)CC2 (stereo not drawn) |
| 7.51 | COc1ccc(N)c(C2c3cc(OC)c(OC)cc3CCN2CCOc2ccccc2)c1 (stereo not drawn) |
| 7.36 | COc1ccc2c(c1)C(c1ccccc1N)N(CCOc1ccccc1)CC2 (stereo not drawn) |
| 7.66 | COc1cc2c(cc1OC)C(c1ccccc1N)N(CCOc1ccccc1)CC2 (stereo not drawn) |
| 8.46 | COc1ccc([N+](=O)[O-])c(C2c3cc(OC)c(OC)cc3CCN2CCOc2ccccc2)c1 (stereo not drawn) |
| 7.94 | O=[N+]([O-])c1ccccc1C1c2ccccc2CCN1CCOc1ccccc1 (stereo not drawn) |
| 8.11 | COc1ccc2c(c1)C(c1ccccc1[N+](=O)[O-])N(CCOc1ccccc1)CC2 (stereo not drawn) |
| 8.34 | COc1ccc(NCCOc2ccccc2)c(C2c3cc(OC)c(OC)cc3CCN2CCOc2ccccc2)c1 (stereo not drawn) |
| 9.01 | COc1cc2c(cc1OC)C(c1ccccc1[N+](=O)[O-])N(CCOc1ccccc1)CC2 (stereo not drawn) |
| 8.23 | COc1cc2c(cc1OC)C(Cc1ccccc1)N(CCOc1ccccc1)CC2 (stereo not drawn) |
| 7.71 | c1ccc(OCCNc2ccccc2C2c3ccccc3CCN2CCOc2ccccc2)cc1 (stereo not drawn) |
| 8.33 | COc1cc2c(cc1OC)C(c1ccccc1NCCOc1ccccc1)N(CCOc1ccccc1)CC2 (stereo not drawn) |

Source: ChEMBL document CHEMBL1138572, “The synthesis of N-phenoxyethyl-1-substituted-1,2,3,4-tetrahydroisoquinolines and their alpha1-adrenoceptor blocking activity” (Eur J Med Chem, 2009)
